Experimental data taken from patent publication US20090264345A1, “MACROCYCLIC PEPTIDES AND METHODS FOR MAKING AND USING THEM” (priority 2006, published 2009).
Like-named read-outs stand apart in the source and are kept apart here.

Assays:
[1] = system: MSS colon cancers; conditions: drug of choice for MSS colon cancers; cited from earlier work
[2] = amide bond, 15-membered ring, DEPBT/HATU/TBTU/DIEA, THF/MeCN/CH2Cl2 2:2:1, 7.0 mM, 2 steps
[3] = system: virus-encoded topoisomerase I; conditions: poxvirus MCV; Hwang et al. 1999; cited from earlier work

O=c1[nH]cc(F)c(=O)[nH]1 [5-fluorouracil]
IC50 [1]: 5 µM

CC(C)C[C@@H]1NC(=O)[C@H](Cc2ccccc2)NC(=O)[C@H](CC(C)C)NC(=O)[C@H](C(C)C)NC(=O)[C@H](CC(C)C)NC1=O [cyclo[-Phe-Leu-Val-Leu-Leu-]]
ring closure, isolated yield ([2]; from H-Leu-Leu-Val-Leu-Phe-OH?): 65%

CC(C)C[C@@H]1NC(=O)[C@H](Cc2ccccc2)NC(=O)[C@H](CC(C)C)NC(=O)[C@H](C(C)C)NC(=O)[C@@H](CC(C)C)NC1=O [cyclo[-Phe-Leu-Val-Xaa-Leu-] (Xaa-4 DLeu)]
ring closure, isolated yield ([2]; from H-Leu-dLeu-Val-Leu-Phe-OH?): 53%

CC(C)C[C@@H]1NC(=O)[C@H](C(C)C)NC(=O)[C@@H](CC(C)C)NC(=O)[C@@H](CC(C)C)NC(=O)[C@H](Cc2ccccc2)NC1=O [cyclo[-Phe-Leu-Val-Xaa-Xaa-] (Xaa-4 DLeu, Xaa-5 DLeu)]
ring closure, isolated yield ([2]; from H-dLeu-dLeu-Val-Leu-Phe-OH?): 35%

CC(C)C[C@@H]1NC(=O)[C@H](C(C)C)NC(=O)[C@H](CC(C)C)N(C)C(=O)[C@@H](CC(C)C)NC(=O)[C@H](Cc2ccccc2)NC1=O [cyclo[-Phe-Leu-Val-Xaa-Xaa-] (Xaa-4 NMeLeu, Xaa-5 DLeu)]
ring closure, isolated yield ([2]; from H-dLeu-MeLeu-Val-Leu-Phe-OH?): 40%

CC(C)C[C@@H]1NC(=O)[C@H](Cc2ccccc2)NC(=O)[C@H](CC(C)C)NC(=O)[C@@H](C(C)C)NC(=O)[C@H](CC(C)C)NC1=O [cyclo[-Phe-Leu-Xaa-Leu-Leu-] (Xaa-3 DVal)]
ring closure, isolated yield ([2]; from H-Leu-Leu-dVal-Leu-Phe-OH?): 65%

CC(C)C[C@@H]1NC(=O)[C@H](Cc2ccccc2)NC(=O)[C@@H](CC(C)C)NC(=O)[C@H](C(C)C)NC(=O)[C@H](CC(C)C)NC1=O [cyclo[-Phe-Xaa-Val-Leu-Leu-] (Xaa-2 DLeu)]
ring closure, isolated yield ([2]; from H-Leu-Leu-Val-dLeu-Phe-OH?): 85%

CC(C)C[C@@H]1NC(=O)[C@H](Cc2ccccc2)NC(=O)[C@@H](CC(C)C)N(C)C(=O)[C@H](C(C)C)NC(=O)[C@H](CC(C)C)NC1=O [cyclo[-Phe-Xaa-Val-Leu-Leu-] (Xaa-2 DNMeLeu)]
ring closure, isolated yield ([2]; from H-Leu-Leu-Val-dMeLeu-Phe-OH?): 81%

CC(C)C[C@@H]1NC(=O)[C@H](CC(C)C)NC(=O)[C@@H](Cc2ccccc2)NC(=O)[C@H](CC(C)C)NC(=O)[C@H](C(C)C)NC1=O [cyclo[-Xaa-Leu-Val-Leu-Leu-] (Xaa-1 DPhe)]
ring closure, isolated yield ([2]; from H-Leu-Leu-Val-Leu-dPhe-OH?): 39%

CC(C)C[C@@H]1NC(=O)[C@H](CC(C)C)NC(=O)[C@@H](Cc2ccccc2)NC(=O)[C@@H](CC(C)C)NC(=O)[C@H](C(C)C)NC1=O [cyclo[-Xaa-Xaa-Val-Leu-Leu-] (Xaa-1 DPhe, Xaa-2 DLeu)]
ring closure, isolated yield ([2]; from H-Leu-Leu-Val-dLeu-dPhe-OH?): 37%

Sansalvamide A [San A]
inhibition of topoisomerase I [3]: inhibitor
